Assay results as given in patent US10392412B2, “Platinum anticancer agents” (THE REGENTS OF THE UNIVERSITY OF CALIFORNIA, priority 2015, dated 2019).
Entries after “also recorded” stand apart in the source; their conditions may differ. Read-outs that look alike come from different tables or passages of the source.

Assays:
SNF539 cells = assay: Cytotoxicity CellTiter-Glo; type: cell-based, human
U87MG cells = assay: Cytotoxicity CellTiter-Glo; type: cell-based, human
U251 cells = assay: Cytotoxicity CellTiter-Glo; type: cell-based, human
MG-63 cells = assay: Cytotoxicity CellTiter-Glo; type: cell-based, human; settings: MG-63, Osteosarcoma
SAOS-2 cells = assay: Cytotoxicity CellTiter-Glo; type: cell-based, human; settings: SAOS-2, Osteosarcoma
U-2 OS cells = assay: Cytotoxicity CellTiter-Glo; type: cell-based, human
A204 cells = assay: Cytotoxicity CellTiter-Glo; type: cell-based, human; settings: A204, Rhabdomyosarcoma
A673 cells = assay: Cytotoxicity CellTiter-Glo; type: cell-based, human
Kelly cells = assay: Cytotoxicity CellTiter-Glo; type: cell-based, human
SHEP cells = assay: Cytotoxicity CellTiter-Glo; type: cell-based, human
A2780 cells = assay: Cytotoxicity CellTiter-Glo; type: cell-based, human; settings: read-out: IC50 (50% growth inhibition); A2780, Ovary; 72 hours
A2780-CP cells = assay: Cytotoxicity CellTiter-Glo; type: cell-based, human; settings: read-out: IC50 (50% growth inhibition), Ovary, 72 hours
PE01 cells = assay: Cytotoxicity CellTiter-Glo; type: cell-based, human; settings: read-out: IC50 (50% growth inhibition); PE01, Ovary; 72 hours
PE04 cells = assay: Cytotoxicity CellTiter-Glo; type: cell-based, human; settings: read-out: IC50 (50% growth inhibition); PE04, Ovary; 72 hours
SLC19A1 [1] = molecular target: T1, SLC19A1 (Homo sapiens, UniProt P41440); assay: IC50 with and without folic acid, transporter SLC19A1 (Table 8); type: cell-based
T1 sequence (P41440 1-591): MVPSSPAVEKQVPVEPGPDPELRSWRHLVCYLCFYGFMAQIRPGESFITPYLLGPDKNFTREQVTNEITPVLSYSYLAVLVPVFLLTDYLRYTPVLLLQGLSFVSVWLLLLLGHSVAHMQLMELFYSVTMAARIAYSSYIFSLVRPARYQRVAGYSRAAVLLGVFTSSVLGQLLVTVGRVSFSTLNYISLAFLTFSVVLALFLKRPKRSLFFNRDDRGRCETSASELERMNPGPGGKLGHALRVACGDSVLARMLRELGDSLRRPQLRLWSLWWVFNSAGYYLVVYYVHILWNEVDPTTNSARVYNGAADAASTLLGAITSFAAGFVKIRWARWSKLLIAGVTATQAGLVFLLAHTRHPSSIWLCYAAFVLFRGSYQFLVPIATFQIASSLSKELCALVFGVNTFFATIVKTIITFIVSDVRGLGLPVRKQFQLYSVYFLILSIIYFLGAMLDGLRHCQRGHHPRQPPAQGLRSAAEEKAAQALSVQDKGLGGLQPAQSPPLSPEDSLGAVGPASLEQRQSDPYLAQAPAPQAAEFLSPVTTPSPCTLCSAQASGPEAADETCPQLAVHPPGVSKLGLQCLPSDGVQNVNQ

SLC19A1 [2] = molecular target: T1, SLC19A1; assay: Inhibition of SLC19A1-mediated uptake of 3H-methotrexate; type: cell-based; settings: read-out: IC50, inhibition of SLC19A1-mediated uptake of 3H-methotrexate
Description: FIG. 10. […] SM69 inhibits DHFR to a lesser degree (at SM69 concentrations of only 10% to 20% of the enzyme activity was inhibited).

genomic DNA = assay: Platinum-DNA adducts by ICP-MS in HEK293 cells; type: cell-based, human
Procedure: Method to quantify platinum-DNA adducts by ICP-MS has been previously described (5,6). In brief, HEK293 cells were seeded in 6-well poly-D-lysine plate (cell density=0.5×10^6 cells/well). […] After 2 hours, the cells were washed twice with cold HBBS. The platinum content associated with genomic DNA was determined as described elsewhere. Genomic DNA was isolated from the cell pellets using Genomic DNA purification kit (Promega) and the DNA-bound platinum was determined by ICP-MS, which was normalized to total DNA content (determined by absorption spectrometry at 260 nm).

[3] = Pharmacokinetics: total platinum in plasma after i.v. tail vein injection; settings: equimolar doses: SM-69 5 mpk, cisplatin 2 mpk; single i.v. dose, mice
Description: (§1) The concentration versus time course of total platinum followed a two-compartment model in the mice. […] In the maximum tolerated dose studies, we observed body weight reduction in all mice due to the low folate diet (FIG. 6).

[4] = Lethality in C57BL/6 mice, i.v. once a week
Description: as §1

[5] = system: SK-N-DZ neuroblastoma xenografts; assay: SK-N-DZ neuroblastoma xenograft in nu/nu mice; type: in vivo, mouse; settings: for tumor volume / tumor growth: SKNDZ neuroblastoma xenograft, 5 mg/kg i.v. once a week for 4 weeks
Procedure: The xenograft studies were performed by subcutaneous injection of SK-N-DZ (neuroblastoma, 30×10^6 cells/animal) and RMS13 (rhabdomyosarcoma, 20×10^6 cells/animal) in right flank of the male Charles River Laboratories nu/nu mice (7-8 weeks old, weight ˜20 g). Mice were treated by intravenous tail vein injection once a week for 4 weeks. The tumor sizes and body weights were monitored twice a week. Tumor volumes were calculated according to the following formula: volume=height×[…]×length×0.5236.

HL-60(TB) cells = settings: Leukemia
[6] = read-out: IC50 (50% growth inhibition), 72 hours
[7] = read-out: IC50 (50% growth inhibition), Neuroblastoma, 72 hours

[Pt(DMSO)methotrexate(Cl)] [SM-69]
IC50 (SNF539 cells; read-out: IC50 (50% growth inhibition), SNF539, Brain, 72 hours): 1.2 ± 1.1 µM
IC50 (SNF539 cells; read-out: IC50 ± S.D. (50% growth inhibition), SF539, Brain - High grade, + 1 mM Folic Acid): 13.4 ± 4.8 µM
IC50 (U87MG cells; read-out: IC50 (50% growth inhibition), Brain, 72 hours): 2.2 ± 2 µM
IC50 (U87MG cells; read-out: IC50 ± S.D. (50% growth inhibition), Brain - Low grade, + 1 mM Folic Acid): 26.2 ± 21.5 µM
IC50 (U87MG cells; read-out: IC50 ± S.D. (50% growth inhibition), Brain - Low grade, two independent experiments): 3.7 ± 4.5 µM
IC50 (U251 cells; read-out: IC50 (50% growth inhibition), U251, Brain, 72 hours): 4 ± 4.5 µM
IC50 (U251 cells; read-out: IC50 ± S.D. (50% growth inhibition), U251, Brain - High grade, + 1 mM Folic Acid): 6.1 ± 0.29 µM
IC50 (U251 cells; read-out: IC50 ± S.D. (50% growth inhibition), U251, Brain - High grade, two independent experiments): 0.25 ± 0.02 µM
GI50 (MG-63 cells): 2.4 ± 1.4 µM
IC50 (MG-63 cells; [6]): 2.4 ± 1.4 µM
GI50 (SAOS-2 cells): 10.4 ± 9.4 µM
IC50 (SAOS-2 cells; [6]): 10.4 ± 9.4 µM
GI50 (U-2 OS cells; Osteosarcoma): 18 ± 15 µM
IC50 (U-2 OS cells; read-out: IC50 (50% growth inhibition), Osteosarcoma, 72 hours): 18 ± 15 µM
GI50 (A204 cells): 3.9 ± 3 µM
IC50 (A204 cells; [6]): 3.9 ± 3 µM
GI50 (A673 cells; A673, Ewing's sarcoma): 0.3 ± 0.3 µM
IC50 (A673 cells; read-out: IC50 (50% growth inhibition), A673, Ewing's Sarcoma, 72 hours): 0.3 ± 0.3 µM
GI50 (Kelly cells; Neuroblastoma): 3.7 ± 2.7 µM
IC50 (Kelly cells; [7]): 3.7 ± 2.7 µM
GI50 (SHEP cells; Neuroblastoma): 2.7 ± 2.3 µM
IC50 (SHEP cells; [7]): 2.7 ± 2.3 µM
IC50 (A2780 cells): 1.2 ± 0.2 µM
IC50 (A2780-CP cells): 8.6 ± 2.1 µM
IC50 (PE01 cells): 0.6 ± 0.4 µM
IC50 (PE04 cells): 4.9 ± 2 µM
IC50 (SLC19A1 [1]; Folic acid (1 mM), read-out: IC50 with substrate or inhibitor): 42.7 ± 4.11 µM
IC50 (SLC19A1 [1]; without substrate or inhibitor, read-out: IC50): 13.5 ± 1.62 µM
IC50 (SLC19A1 [2]): 6.5 µM
platinum content associated with genomic DNA, dose dependence (genomic DNA): higher with higher doses
platinum content associated with genomic DNA (platinum-DNA adducts) (genomic DNA; 10 μM, 2 hours): form platinum-DNA adducts similarly to cisplatin
total platinum levels in plasma compared with cisplatin [3]: higher plasma levels of total platinum; also recorded: significantly higher than cisplatin
lethality ([4]; 5 mg/kg i.v. once a week): not
lethality ([4]; 10 mg/kg i.v. once a week): lethal
tumor volume / tumor growth ([5]; 5 mg/kg): significantly different compared with other groups; also recorded: significantly lower compared with SM-70
tumor volume / tumor growth ([5]; listed as AT-69, 5 mg/kg): significantly reduces NB tumor growth; also recorded: inhibited tumor growth; also recorded: more potent than cisplatin
survival ([5]; SKNDZ xenograft model, 5 mpk, listed as AT-69, 5 mg/kg): significant increase; also recorded: significantly increase survival; also recorded: significant difference in survival; also recorded: increase survival rate
Log10GI50 (HL-60(TB) cells): −5.46 M
